The assay has as its target recombinant CaMKIIδ (Homo sapiens (Human), UniProt Q13557). Put plainly: CaMKIIδ biochemical assay (HTRF). The note with it: 10 pM CaMKIIδ, 110 nM calmodulin, 12 μM ATP, 1 hour; read-out: CAMKIID-HTRF-384V2 (IC50 - nM). On the procedure: CaMKIIδ Biochemical Assay
The biochemical activity of recombinant CaMKIIδ was measured by monitoring the phosphorylation of a target peptide using Homogenous Time Resolved Fluorescence (HTRF) technology from CisBio Bioassays.
As to `CCN(CC)[C@@H](C)CNC(=O)c1cc(-c2cnn3ccc(-c4cccs4)nc23)nc(N2CC[C@H]2C(=O)N(C)C)c1` [Example 279, N—((S)-2-(diethylamino)propyl)-2-((S)-2-(dimethylcarbamoyl)azetidin-1-yl)-6-(5-(thiophen-2-yl)pyrazolo[1,5-a]pyrimidin-3-yl)isonicotinamide], the IC50 stood at 0.17 nM.
Next, `CCN(CC)C(=O)[C@@H]1CCN1c1cc(C(=O)NC[C@H](C)N(CC)CC)cc(-c2cnn3ccc(-c4cccs4)nc23)n1` [Example 280, N—((S)-2-(diethylamino)propyl)-2-((S)-2-(diethylcarbamoyl)azetidin-1-yl)-6-(5-(thiophen-2-yl)pyrazolo[1,5-a]pyrimidin-3-yl)isonicotinamide]: 0.45 nM; `CCN(CC)[C@@H](C)CNC(=O)c1cc(-c2cnn3ccc(-c4cccs4)nc23)nc(N2CC[C@H]2C(=O)NCCF)c1` [Example 281, N—((S)-2-(diethylamino)propyl)-2-((S)-2-((2-fluoroethyl)carbamoyl)azetidin-1-yl)-6-(5-(thiophen-2-yl)pyrazolo[1,5-a]pyrimidin-3-yl)isonicotinamide]: 0.46 nM.
Next, `CCN(CC)[C@@H](C)CNC(=O)c1cc(-c2cnn3ccc(-c4cccs4)nc23)nc(N2CC[C@H]2C(=O)NCC(F)F)c1` [Example 282, N—((S)-2-(diethylamino)propyl)-2-((S)-2-((2,2-difluoroethyl)carbamoyl)azetidin-1-yl)-6-(5-(thiophen-2-yl)pyrazolo[1,5-a]pyrimidin-3-yl)isonicotinamide]: 0.47 nM; `CCN(CC)[C@@H](C)CNC(=O)c1cc(-c2cnn3ccc(-c4cccs4)nc23)nc(N2CC[C@H]2C(=O)NCC(F)(F)F)c1` [Example 283, N—((S)-2-(diethylamino)propyl)-2-(5-(thiophen-2-yl)pyrazolo[1,5-a]pyrimidin-3-yl)-6-((S)-2-((2,2,2-trifluoroethyl)carbamoyl)azetidin-1-yl)isonicotinamide]: 1.37 nM; `CCN(CC)[C@@H](C)CNC(=O)c1cc(-c2cnn3ccc(-c4cccs4)nc23)nc(N2CC[C@H]2C(=O)N2CC(F)C2)c1` [Example 284, N—((S)-2-(diethylamino)propyl)-2-((S)-2-(3-fluoroazetidine-1-carbonyl)azetidin-1-yl)-6-(5-(thiophen-2-yl)pyrazolo[1,5-a]pyrimidin-3-yl)isonicotinamide]: 0.18 nM.
Next, `CCN(CC)[C@@H](C)CNC(=O)c1cc(-c2cnn3ccc(-c4cccs4)nc23)nc(N2CC[C@H]2C(=O)N2CC3CC3C2)c1` (stereo partly drawn) [Example 285, 2-((2S)-2-(3-azabicyclo[3.1.0]hexane-3-carbonyl)azetidin-1-yl)-N—((S)-2-(diethylamino)propyl)-6-(5-(thiophen-2-yl)pyrazolo[1,5-a]pyrimidin-3-yl)isonicotinamide]: 0.42 nM; `CCN(CC)[C@@H](C)CNC(=O)c1cc(-c2cnn3ccc(-c4cccs4)nc23)nc(N2CC[C@H]2C(=O)N2CC(NS(C)(=O)=O)C2)c1` [Example 286, N—((S)-2-(diethylamino)propyl)-2-((S)-2-(3-(methylsulfonamido)azetidine-1-carbonyl)azetidin-1-yl)-6-(5-(thiophen-2-yl)pyrazolo[1,5-a]pyrimidin-3-yl)isonicotinamide]: 0.16 nM; `CCN(CC)[C@@H](C)CNC(=O)c1cc(-c2cnn3ccc(-c4cccs4)nc23)nc(N2CC[C@H]2C(=O)N(C)OC)c1` [Example 287, N—((S)-2-(diethylamino)propyl)-2-((S)-2-(methoxy(methyl)carbamoyl)azetidin-1-yl)-6-(5-(thiophen-2-yl)pyrazolo[1,5-a]pyrimidin-3-yl)isonicotinamide]: 0.33 nM.
For the molecule `CCN(CC)[C@@H](C)CNC(=O)c1cc(-c2cnn3ccc(-c4cccs4)nc23)nc(N2CC[C@H]2C(=O)N2CCCC2)c1` [Example 288, N—((S)-2-(diethylamino)propyl)-2-((S)-2-(pyrrolidine-1-carbonyl)azetidin-1-yl)-6-(5-(thiophen-2-yl)pyrazolo[1,5-a]pyrimidin-3-yl)isonicotinamide], the IC50 was determined as 0.29 nM.
In the case of `CCN(CC)[C@@H](C)CNC(=O)c1cc(-c2cnn3ccc(-c4cccs4)nc23)nc(N2CC[C@H]2C(=O)NOC)c1` [Example 289, N—((S)-2-(diethylamino)propyl)-2-((S)-2-(methoxycarbamoyl)azetidin-1-yl)-6-(5-(thiophen-2-yl)pyrazolo[1,5-a]pyrimidin-3-yl)isonicotinamide], the IC50 was found to be 0.65 nM.
The same measure for `CCN(CC)[C@@H](C)CNC(=O)c1cc(-c2cnn3ccc(-c4cccs4)nc23)nc(N2CC[C@@H]2C(=O)NC)c1` [Example 290, N—((S)-2-(diethylamino)propyl)-2-((R)-2-(methylcarbamoyl)azetidin-1-yl)-6-(5-(thiophen-2-yl)pyrazolo[1,5-a]pyrimidin-3-yl)isonicotinamide]: 14.1 nM; for `CCN(CC)[C@@H](C)CNC(=O)c1cc(-c2cnn3ccc(-c4cccs4)nc23)nc(N2CC[C@H]2C(=O)Nc2nccs2)c1` [Example 291, N—((S)-2-(diethylamino)propyl)-2-((S)-2-(thiazol-2-ylcarbamoyl)azetidin-1-yl)-6-(5-(thiophen-2-yl)pyrazolo[1,5-a]pyrimidin-3-yl)isonicotinamide]: 3.55 nM.
Regarding `CCN(CC)[C@@H](C)CNC(=O)c1cc(-c2cnn3ccc(-c4cccs4)nc23)nc(N2CC[C@H]2C(=O)N2CC(C)(C)C2)c1` [Example 292, N—((S)-2-(diethylamino)propyl)-2-((S)-2-(3,3-dimethylazetidine-1-carbonyl)azetidin-1-yl)-6-(5-(thiophen-2-yl)pyrazolo[1,5-a]pyrimidin-3-yl)isonicotinamide], the IC50 stood at 0.58 nM.
The same measure for `CCN(CC)[C@@H](C)CNC(=O)c1cc(-c2cnn3ccc(-c4cccs4)nc23)nc(N2CC[C@H]2C(=O)N2CCOCC2)c1` [Example 293, N—((S)-2-(diethylamino)propyl)-2-((S)-2-(morpholine-4-carbonyl)azetidin-1-yl)-6-(5-(thiophen-2-yl)pyrazolo[1,5-a]pyrimidin-3-yl)isonicotinamide]: 0.16 nM.
The same measure for `CCN(CC)[C@@H](C)CNC(=O)c1cc(-c2cnn3ccc(-c4cccs4)nc23)nc(N2CC[C@H]2C(=O)N2CC(F)(F)C2)c1` [Example 294, N—((S)-2-(diethylamino)propyl)-2-((S)-2-(3,3-difluoroazetidine-1-carbonyl)azetidin-1-yl)-6-(5-(thiophen-2-yl)pyrazolo[1,5-a]pyrimidin-3-yl)isonicotinamide]: 0.22 nM; for `CCN(CC)[C@@H](C)CNC(=O)c1cc(-c2cnn3ccc(-c4cccs4)nc23)nc(N2CC[C@H]2C(=O)N2CC(OC)C2)c1` [Example 295, N—((S)-2-(diethylamino)propyl)-2-((S)-2-(3-methoxyazetidine-1-carbonyl)azetidin-1-yl)-6-(5-(thiophen-2-yl)pyrazolo[1,5-a]pyrimidin-3-yl)isonicotinamide]: 0.25 nM.
The same measure for `CCN(CC)[C@@H](C)CNC(=O)c1cc(-c2cnn3ccc(-c4cccs4)nc23)nc(N2CC[C@H]2C(=O)O)c1` [Example 296, (S)-1-(4-(((S)-2-(diethylamino)propyl)carbamoyl)-6-(5-(thiophen-2-yl)pyrazolo[1,5-a]pyrimidin-3-yl)pyridin-2-yl)azetidine-2-carboxylic Acid]: 1.93 nM.

Source of the values: patent US10100058B2, “Fused heterocyclic compounds as CaM kinase inhibitors” (Gilead Sciences, Inc., priority 2016, dated 2018).
